Series [1] concerns acid glycoprotein in submucosal glandular cells of the trachea. The experiment in a line: Effect on the dissolution of acid glycoprotein in submucosal glandular cells of the trachea (isolated tracheal strips, AB/PAS staining). The class given is cell-based, dogs. The note with it: for Ratio of Glandular Cells Containing Acid Glycoprotein to Total Glandular Cells (%): control 72.4; for EC50: Canis lupus familiaris, dose required for decreasing acid glycoprotein by 50%, calculated from Table III data, read-out: ED50 (the source's name); for Potency Ratio: from ED50, dose of reference drug 1 made 1. As to the method: Experiments were performed following the method of Yanaura et al. (Nippon Yakurigaku Zasshi, 77, 559 - 568 (1981)). Male mongrel dogs weighing 10 to 12 kg were anesthetized with sodium pentobarbital (30 mg/kg, i.v.). The trachea was quickly excised about 10 cm long and rapidly […] to a Hanks' solution (95% 02 - 5% CO2, 37 + 1° ). Connective tissues around were removed and the trachea was cut into strips about 2 cm long. The tracheal strips were preincubated for 30 minutes in Hanks' solution, and then drugs were added to the solution and the mixtures were further incubated for 30 minutes. The tracheal strips were then fixed with a 10% formaldehyde isotonic solution followed by dehydrating in a series of graded ethanol concentrations and paraffinembedding in a conventional manner. Sections 4 µm thick were cut with a Jung type microtome and stained with alcian blue (pH 2.5) - periodic acid Schiff (AB (pH 2.5)/PAS). The specimens were studied by the optical microscopic observation with the effects of drugs on the secretory activities of the tracheal secretory cells and on the dissolution of acid glycoprotein in submucosal glandular cells of the tracheal. As a tracheal mucus dissolution activity, an effect on the dissolution of acid glycoprotein in submucosal glandular cells was observed. In double staining with AB (pH 2.5)/PAS, submucosal glandular cells containing much acid glycoprotein were strongly stained blue because of the reaction with AB. When acid glycoprotein in glandular cells is dissolved and its acid groups were lost, it is stained with PAS instead of AB. Consequently, submucosal glandular cells turned to red from blue in color. The ratio of blue glandular cells to total glandular cells was observed, and the effect on the dissolution of acid glycoprotein was estimated by decrease in the ratio. Based on the above data, a dose of each of the compounds tested required for decreasing acid glycoprotein by 50% (ED50) was calculated. Further, a potency ratio was determined when the dose of reference drug 1 was made 1.

Series [2] can be described thus: Acute toxicity test. The conditions noted are these: mouse, in vivo, mice, Litchfield-Wilcoxon, dead animals within 7 days. As to the method:
Male mice of ddy-strain weighing 20 to 25 g were used. Drugs were administered orally and intraperitoneally to 10 mice in each group. LD50 was calculated by the Litchfield-Wilcoxon method from dead animals within 7 days.

In series [3] the test system is tracheal secretory cells. In words: Effect on the secretory activity of the tracheal secretory cells (isolated tracheal strips, AB/PAS staining, A^IWR). The class given is cell-based, dogs. The note with it: for Acinar Inner Diameter of Submucosal Gland to Wall Ratio (A^IWR): dog tracheal strips incubated 30 minutes, control 5.0 x 10^-2; for activation at 10 µM / activation at 1 µM / activation at 0.1 µM: Canis lupus familiaris, 0.5 h, relative to control, read-out: Increasing Rate in A^IWR (%). As to the method:
Experiments were performed following the method of Yanaura et al. (Nippon Yakurigaku Zasshi, 77, 559 - 568 (1981)). Male mongrel dogs weighing 10 to 12 kg were anesthetized with sodium pentobarbital (30 mg/kg, i.v.). The trachea was quickly excised about 10 cm long and rapidly […] to a Hanks' solution (95% 02 - 5% CO2, 37 + 1° ). Connective tissues around were removed and the trachea was cut into strips about 2 cm long. The tracheal strips were preincubated for 30 minutes in Hanks' solution, and then drugs were added to the solution and the mixtures were further incubated for 30 minutes. The tracheal strips were then fixed with a 10% formaldehyde isotonic solution followed by dehydrating in a series of graded ethanol concentrations and paraffinembedding in a conventional manner. Sections 4 µm thick were cut with a Jung type microtome and stained with alcian blue (pH 2.5) - periodic acid Schiff (AB (pH 2.5)/PAS). The specimens were studied by the optical microscopic observation with the effects of drugs on the secretory activities of the tracheal secretory cells and on the dissolution of acid glycoprotein in submucosal glandular cells of the tracheal. A thickness between basement membrance and cartilage (thickness of […]; wall is referred to as "W"), and acinar inner diameter of submucosal gland (A^I) were measured. Then, acinar inner diameter of submucosal gland to wall ratio (A^IWR) was calculated. Increase of A^IWR reflects enhancement of the secretory activity in submucosal gland. If test drug has a significant increase in A^IWR, it has a respiratory tract fluid (RTF) - increasing effect.

The mark [4] stands for this setting: compared with reference drugs 1 and 2.

The values that follow come from patent EP0061157A1, “2-Benzoylamino substituted benzylamine derivative and a process for preparation thereof” (Hokuriku Pharmaceutical Co.,Ltd, priority 1981, dated 1982).

Counter-ions that a name gives are not always drawn. Marks after values point to notes of the source that are not given here.

What is called LD50 is the dose at which mortality reaches 50%. High values mean lower toxicity, low ones greater toxicity. In the case of `COc1cc(C(=O)Nc2c(Br)cc(Br)cc2CN(C)C2CCCCC2)ccc1OC(C)=O` [Reference Drug 1, 2-(4-Acetoxy-3-methoxybenzoylamino)-3.5-dibromo-N-cyclohexyl-N-methylbenzylamine hydrochloride], the “Ratio of Glandular Cells Containing Acid Glycoprotein to Total Glandular Cells (%)” value (from here on “Ratio … (%)”) is listed as 23.8** % in series [1] (1 x 10^-5 M), 46.8** % in series [1] (1 x 10^-6 M) and 71.0% in series [1] (1 x 10^-7 M). Moreover, the EC50 in series [1] was 2.5 µM. Further, the LD50 at 168 h was more than 4000 mg/kg in series [2] (ip, I.P.) and more than 12000 mg/kg in series [2] (po, P.O.). The figures for the “Acinar Inner Diameter of Submucosal Gland to Wall Ratio (A^IWR)” value in series [3] (1 x 10^-5M), in series [3] (1 x 10^-6M) and in series [3] (1 x 10^-7M) were 6.5 x 10^-2**, 6.2 x 10^-2* and 5.3 x 10^-2, respectively. For the same compound, the activation at 10 µM in series [3] (1 x 10^-5M) turned out to be 30%. Besides, in series [3] (1 x 10^-6M), the activation at 1 µM worked out at 24%. Besides, the activation at 0.1 µM in series [3] (1 x 10^-7M) is 6%.

`COc1cc(C(=O)Nc2c(Br)cc(Br)cc2CN(C)C2CCCCC2)ccc1O.Cl` [Compound of This Invention, 2-(4-Hydroxy-3-methoxybenzoylamino)-3,5-dibromo-N-cyclohexyl-N-methylbenzylamine hydrochloride]: the “Ratio … (%)” value in series [1] (1 x 10^-5 M) is recorded as 10.6** %; in series [1] (1 x 10^-6 M), 21.6** %; in series [1] (1 x 10^-7 M), 42.0** %. Moreover, the EC50 in series [1] is 0.23 µM. Besides, the “mucolytic activity (dissolution of acid glycoprotein), times stronger than that of reference drugs 1 and 2” value in series [1] (setting [4]) is recorded as 10 times. Moreover, the “Potency Ratio” value in series [1] amounted to 10.87. In addition, the LD50 at 168 h in series [2] (ip, I.P.) is more than 4000 mg/kg; in series [2] (po, P.O.) it was more than 12000 mg/kg. In addition, the “Acinar Inner Diameter of Submucosal Gland to Wall Ratio (A^IWR)” value in series [3] (1 x 10^-5M) was 7.3 x 10^-2**; in series [3] (1 x 10^-6M), 7.1 x 10^-2**; in series [3] (1 x 10^-7M) it was 6.1 x 10^-2*. In addition, in series [3] (1 x 10^-5M), the activation at 10 µM came out at 46%. Also, the activation at 1 µM in series [3] (1 x 10^-6M) stood at 42%. In series [3] (1 x 10^-7M), the activation at 0.1 µM stood at 22%. The “enhancement in A^IWR, times as strong as that of reference drugs 1 and 2” value in series [3] (setting [4]) was “about 10 times”.

As for `CN(Cc1cc(Br)cc(Br)c1N)C1CCCCC1.Cl` [Reference Drug 2, 2-Amino-3,5-dibromo-N-cyclohexyl-N-methylbenzylamine hydrochloride], the “Ratio … (%)” value is 17.5** % in series [1] (1 x 10^-5 M), 30.0** % in series [1] (1 x 10^-6 M) and 66.2% in series [1] (1 x 10^-7 M). Also, the EC50 in series [1] is 1.3 µM. Besides, in series [1], the “Potency Ratio” value came to 1.92. In addition, the LD50 at 168 h came out at 2320 mg/kg in series [2] (ip, I.P.) and 9000 mg/kg in series [2] (po, P.O.). The “Acinar Inner Diameter of Submucosal Gland to Wall Ratio (A^IWR)” value in series [3] (1 x 10^-5M) was 6.2 x 10^-2*; in series [3] (1 x 10^-6M), 5.6 x 10^-2; in series [3] (1 x 10^-7M) it was 5.2 x 10^-2. The activation at 10 µM in series [3] (1 x 10^-5M) came out at 24%. The activation at 1 µM in series [3] (1 x 10^-6M) was 12%. The activation at 0.1 µM in series [3] (1 x 10^-7M) was found to be 4%.
